Laboratory results from patent US10822337B2, “TGF-β inhibitorC” (Rigel Pharmaceuticals, Inc., priority 2015, dated 2020).

Columns and labels:
[1] = tested on: GDF8 signaling (GDF pSMAD, MPC11); experiment: AlphaScreen SureFire SMAD3 (p-Ser423/425) assay, inhibition of GDF8 signaling; format: cell-based; conditions: Mus musculus, MPC-11, p-SMAD-3 (Ser423/425) in cell lysate after GDF8 stimulation
[2] = tested on: TGF-β signaling (TGF-β pSMAD, MPC-11); experiment: AlphaScreen SureFire SMAD3 (p-Ser423/425) assay, inhibition of TGF-β signaling; format: cell-based; conditions: Mus musculus, p-SMAD-3 (Ser423/425) in cell lysate after TGF-β stimulation
Method in brief: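 Cells in collagen-coated plates were pretreated about 10 minutes with three-fold DMSO serial dilutions of compound, then stimulated with TGF-β. They were lysed with about 25 μL 1× Lysis Buffer. Lysates in 384-well plates were incubated protected from light with Acceptor bead mix for 2 hours and Donor bead mix for 1½ hours. p-SMAD-3 (Ser423/425) was read on Synergy-4 or Enspire using AlphaScreen pSMAD3 settings.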

Structure (SMILES)	IC50 [1] [µM]	IC50 [2] [µM]
Fc1ccc(-c2nn3c(c2-c2ccc4ncnn4c2)CCC3)cc1Cl [Compound 148, 6-(2-(3-Chloro-4-fluorophenyl)-5,6-dihydro-4H-pyrrolo[1,2-b]pyrazol-3-yl)-[1,2,4]triazolo[1,5-a]pyridine]	0.0984	0.311
Fc1ccc(-c2nn3c(c2-c2ccc4[nH]ncc4c2)CCC3)cc1OC(F)(F)F [Compound 150, 5-(2-(4-Fluoro-3-trifluoromethoxyphenyl)-5,6-dihydro-4H-pyrrolo[1,2-b]pyrazol-3-yl)-1H-indazole]	0.31	1.32
Fc1ccc(-c2nn3c(c2-c2ccc4nccn4c2)CCC3)cc1OC(F)(F)F [Compound 151, 6-(2-(4-Fluoro-3-trifluoromethoxyphenyl)-5,6-dihydro-4H-pyrrolo[1,2-b]pyrazol-3-yl)imidazo[1,2-a]pyridine]	0.389	1.16
Fc1ccc(-c2nn3c(c2-c2ccc4ncsc4c2)CCC3)cc1OC(F)(F)F [Compound 152, 6-(2-(4-Fluoro-3-trifluoromethoxyphenyl)-5,6-dihydro-4H-pyrrolo[1,2-b]pyrazol-3-yl)benzo[d]thiazole]	0.486	1.75
Fc1ccc(-c2nn3c(c2-c2ccc4nccnc4c2)CCC3)cc1OC(F)(F)F [Compound 153, 6-(2-(4-Fluoro-3-trifluoromethoxyphenyl)-5,6-dihydro-4H-pyrrolo[1,2-b]pyrazol-3-yl)quinoxaline]	0.551	1.78
Fc1ccc(-c2nn3c(c2-c2ccc4ncnn4c2)CCC3)cc1OC(F)(F)F [Compound 154, 6-(2-(4-Fluoro-3-trifluoromethoxyphenyl)-5,6-dihydro-4H-pyrrolo[1,2-b]pyrazol-3-yl)-[1,2,4]triazolo[1,5-a]pyridine]	0.448	0.825
Fc1ccc(-c2nn3c(c2-c2ccc4[nH]ncc4c2)CCC3)c(F)c1Cl [Compound 155, 5-(2-(3-Chloro-2,4-difluorophenyl)-5,6-dihydro-4H-pyrrolo[1,2-b]pyrazol-3-yl)-1H-indazole]	0.105	1.02
Fc1ccc(-c2nn3c(c2-c2ccc4cn[nH]c4c2)CCC3)c(F)c1Cl [Compound 156, 6-(2-(3-Chloro-2,4-difluorophenyl)-5,6-dihydro-4H-pyrrolo[1,2-b]pyrazol-3-yl)-1H-indazole]	0.44	2.84
Fc1ccc(-c2nn3c(c2-c2ccc4nccn4c2)CCC3)c(F)c1Cl [Compound 157, 6-(2-(3-Chloro-2,4-difluorophenyl)-5,6-dihydro-4H-pyrrolo[1,2-b]pyrazol-3-yl)imidazo[1,2-a]pyridine]	0.133	0.685
Fc1ccc(-c2nn3c(c2-c2ccc4ncsc4c2)CCC3)c(F)c1Cl [Compound 158, 6-(2-(3-Chloro-2,4-difluorophenyl)-5,6-dihydro-4H-pyrrolo[1,2-b]pyrazol-3-yl)benzo[d]thiazole]	0.0842	0.549
Fc1ccc(-c2nn3c(c2-c2ccc4nccnc4c2)CCC3)c(F)c1Cl [Compound 159, 6-(2-(3-Chloro-2,4-difluorophenyl)-5,6-dihydro-4H-pyrrolo[1,2-b]pyrazol-3-yl)quinoxaline]	0.526	2.73
Fc1ccc(-c2nn3c(c2-c2ccc4ncnn4c2)CCC3)c(F)c1Cl [Compound 160, 6-(2-(3-Chloro-2,4-difluorophenyl)-5,6-dihydro-4H-pyrrolo[1,2-b]pyrazol-3-yl)-[1,2,4]triazolo[1,5-a]pyridine]	0.296	0.738
COc1c(F)ccc(-c2nn3c(c2-c2ccc4[nH]ncc4c2)CCC3)c1F [Compound 161, 5-(2-(2,4-Difluoro-3-methoxyphenyl)-5,6-dihydro-4H-pyrrolo[1,2-b]pyraozl-3-yl)-1H-indazole]	0.626	1.45
COc1c(F)ccc(-c2nn3c(c2-c2ccc4ncsc4c2)CCC3)c1F [Compound 162, 6-(2-(2,4-Difluoro-3-methoxyphenyl)-5,6-dihydro-4H-pyrrolo[1,2-b]pyrazol-3-yl)benzo[d]thiazole]	0.555	2.22
COc1c(F)ccc(-c2nn3c(c2-c2ccc4ncnn4c2)CCC3)c1F [Compound 163, 6-(2-(2,4-Difluoro-3-methoxyphenyl)-5,6-dihydro-4H-pyrrolo[1,2-b]pyrazol-3-yl)-[1,2,4]triazolo[1,5-a]pyridine]	0.43	1.34
COc1ccc(F)c(-c2nn3c(c2-c2ccc4nccn4c2)CCC3)c1 [Compound 164, 6-(2-(2-Fluoro-5-methoxyphenyl)-5,6-dihydro-4H-pyrrolo[1,2-b]pyrazol-3-yl)imidazo[1,2-a]pyridine]	0.57	1.31
COc1ccc(F)c(-c2nn3c(c2-c2ccc4nccnc4c2)CCC3)c1 [Compound 165, 6-(2-(2-Fluoro-5-methoxyphenyl)-5,6-dihydro-4H-pyrrolo[1,2-b]pyrazol-3-yl)quinoxaline]	0.0072	0.029

Structure (SMILES)	IC50 [1] [µM]	IC50 [2] [µM]
Cc1c(F)ccc(-c2nn3c(c2-c2ccc4[nH]ncc4c2)CCC3)c1F [Compound 167, 5-(2-(2,4-Difluoro-3-methylphenyl)-5,6-dihydro-4H-pyrrolo[1,2-b]pyrazol-3-yl)-1H-indazole]	0.209	0.538
Cc1c(F)ccc(-c2nn3c(c2-c2ccc4cn[nH]c4c2)CCC3)c1F [Compound 168, 6-(2-(2,4-Difluoro-3-methylphenyl)-5,6-dihydro-4H-pyrrolo[1,2-b]pyrazol-3-yl)-1H-indazole]	0.414	0.797
Cc1c(F)ccc(-c2nn3c(c2-c2ccc4nccn4c2)CCC3)c1F [Compound 169, 6-(2-(2,4-Difluoro-3-methylphenyl)-5,6-dihydro-4H-pyrrolo[1,2-b]pyrazol-3-yl)imidazo[1,2-a]pyridine]	0.178	0.464
Cc1c(F)ccc(-c2nn3c(c2-c2ccc4ncsc4c2)CCC3)c1F [Compound 170, 6-(2-(2,4-Difluoro-3-methylphenyl)-5,6-dihydro-4H-pyrrolo[1,2-b]pyrazol-3-yl)benzo[d]thiazole]	0.213	0.603
Cc1c(F)ccc(-c2nn3c(c2-c2ccc4ncccc4c2)CCC3)c1F [Compound 171, 6-(2-(2,4-Difluoro-3-methylphenyl)-5,6-dihydro-4H-pyrrolo[1,2-b]pyrazol-3-yl)quinoline]	1.22	1.84
Cc1c(F)ccc(-c2nn3c(c2-c2ccc4nccnc4c2)CCC3)c1F [Compound 172, 6-(2-(2,4-Difluoro-3-methylphenyl)-5,6-dihydro-4H-pyrrolo[1,2-b]pyrazol-3-yl)quinoxaline]	0.678	1.78
Cc1c(F)ccc(-c2nn3c(c2-c2ccc4ncnn4c2)CCC3)c1F [Compound 173, 6-(2-(2,4-Difluoro-3-methyphenyl)-5,6-dihydro-4H-pyrrolo[1,2-b]pyrazol-3-yl)-[1,2,4]triazolo[1,5-a]pyridine]	0.131	0.335
Fc1ccc(Cl)cc1-c1nn2c(c1-c1ccc3cn[nH]c3c1)CCC2 [Compound 174, 6-(2-(5-Chloro-2-fluorophenyl)-5,6-dihydro-4H-pyrrolo[1,2-b]pyrazol-3-yl)-1H-indazole]	0.0367	0.153
Fc1ccc(Cl)cc1-c1nn2c(c1-c1ccc3ncsc3c1)CCC2 [Compound 175, 6-(2-(5-Chloro-2-fluorophenyl)-5,6-dihydro-4H-pyrrolo[1,2-b]pyrazol-3-yl)benzo[d]thiazole]	0.0283	0.0419
Fc1ccc(Cl)cc1-c1nn2c(c1-c1ccc3ncccc3c1)CCC2 [Compound 176, 6-(2-(5-Chloro-2-fluorophenyl)-5,6-dihydro-4H-pyrrolo[1,2-b]pyrazol-3-yl)quinoline]	0.0466	0.139
Fc1ccc(Cl)cc1-c1nn2c(c1-c1ccc3nccnc3c1)CCC2 [Compound 177, 6-(2-(5-Chloro-2-fluorophenyl)-5,6-dihydro-4H-pyrrolo[1,2-b]pyrazol-3-yl)quinoxaline]	0.0356	0.0835
Fc1ccc(Cl)cc1-c1nn2c(c1-c1ccc3ncnn3c1)CCC2 [Compound 178, 6-(2-(5-Chloro-2-fluorophenyl)-5,6-dihydro-4H-pyrrolo[1,2-b]pyrazol-3-yl)-[1,2,4]triazolo[1,5-a]pyridine]	0.0132	0.0311
Cc1cc(-c2nn3c(c2-c2ccc4[nH]ncc4c2)CCC3)c(F)cc1F [Compound 179, 5-(2-(2,4-Difluoro-5-methyphenyl)-5,6-dihydro-4H-pyrrolo[1,2-b]pyrazol-3-yl)-1H-indazole]	0.172	0.714
Cc1cc(-c2nn3c(c2-c2ccc4cn[nH]c4c2)CCC3)c(F)cc1F [Compound 180, 6-(2-(2,4-Difluoro-5-methylphenyl)-5,6-dihydro-4H-pyrrolo[1,2-b]pyrazol-3-yl)-1H-indazole]	0.587	1.75
Cc1cc(-c2nn3c(c2-c2ccc4nccn4c2)CCC3)c(F)cc1F [Compound 181, 6-(2-(2,4-Difluoro-5-methylphenyl)-5,6-dihydro-4H-pyrrolo[1,2-b]pyrazol-3-yl)imidazo[1,2-a]pyridine]	0.204	0.381
Cc1cc(-c2nn3c(c2-c2ccc4ncsc4c2)CCC3)c(F)cc1F [Compound 182, 6-(2-(2,4-Difluoro-5-methylphenyl)-5,6-dihydro-4H-pyrrolo[1,2-b]pyrazol-3-yl)benzo[d]thiazole]	0.112	0.225
Cc1cc(-c2nn3c(c2-c2ccc4ncccc4c2)CCC3)c(F)cc1F [Compound 183, 6-(2-(2,4-Difluoro-5-methylphenyl)-5,6-dihydro-4H-pyrrolo[1,2-b]pyrazol-3-yl)quinoline]	0.463	1.64
